The assay has as its target T1, urease (from jack beans) (Canavalia ensiformis, UniProt P07374).
T1 construct: urease (from jack beans); lyophilized 5 U/mg for urea assay in serum; purchased Merck KGaA, Germany; host or cells: jack beans (natural source)
Put plainly: odor-preventing effect: ammonia release from urea/urease solution, read with a diffusion tube. The format is biochemical. The settings on record: 2 g composition, 30 mg urease, 50 ml 0.9% NaCl with 8.56 g/l urea, 23° C. As for the experimental part:
100 g lots of water-absorbing polymer from Example 1 were mixed in a tumble mixer with different amounts of N-cyclohexylthiophosphoramide, N-(n-butyl)thiophosphoramide or N-(n-propyl)thiophosphoramide, for 20 minutes each.
To determine the odor-preventing effect, 2 g of each of the compositions produced above were placed in a 100 ml Erlenmeyer flask and admixed with a freshly prepared solution of 30 mg of urease (from jack beans; lyophilized 5 U/mg for urea assay in serum; Merck KGaA, Germany) and 50 ml of 0.9% sodium chloride solution, the sodium chloride solution containing 8.56 g/l of urea, and sealed with a stopper having an internal diffusion tublet (Drager® Röhrchen; ammonia 20/a-D, 20 to 1500 ppm*h). The measured value was read off every 30 minutes. The measurement was discontinued after 6 hours. The test was carried out at 23° C.

[1] abbreviates: 0.01 % by weight substituted thiophosphoramide in composition with water-absorbing polymer.
Setting [2] is: 0.05 % by weight substituted thiophosphoramide in composition with water-absorbing polymer.
Where [3] appears, read: 0.15 % by weight substituted thiophosphoramide in composition with water-absorbing polymer.
The mark [4] stands for this setting: 0.25 % by weight substituted thiophosphoramide in composition with water-absorbing polymer.
Setting [5] is: 0.35 % by weight substituted thiophosphoramide in composition with water-absorbing polymer.
Setting [6] is: 0.50 % by weight substituted thiophosphoramide in composition with water-absorbing polymer.
[7] abbreviates: 1.50 % by weight substituted thiophosphoramide in composition with water-absorbing polymer.

The values below come from US20080234646A1, “Odour-Preventing, Water-Absorbing Compositions” (priority 2005, published 2008).

T1 sequence (P07374 whole entry, looked up): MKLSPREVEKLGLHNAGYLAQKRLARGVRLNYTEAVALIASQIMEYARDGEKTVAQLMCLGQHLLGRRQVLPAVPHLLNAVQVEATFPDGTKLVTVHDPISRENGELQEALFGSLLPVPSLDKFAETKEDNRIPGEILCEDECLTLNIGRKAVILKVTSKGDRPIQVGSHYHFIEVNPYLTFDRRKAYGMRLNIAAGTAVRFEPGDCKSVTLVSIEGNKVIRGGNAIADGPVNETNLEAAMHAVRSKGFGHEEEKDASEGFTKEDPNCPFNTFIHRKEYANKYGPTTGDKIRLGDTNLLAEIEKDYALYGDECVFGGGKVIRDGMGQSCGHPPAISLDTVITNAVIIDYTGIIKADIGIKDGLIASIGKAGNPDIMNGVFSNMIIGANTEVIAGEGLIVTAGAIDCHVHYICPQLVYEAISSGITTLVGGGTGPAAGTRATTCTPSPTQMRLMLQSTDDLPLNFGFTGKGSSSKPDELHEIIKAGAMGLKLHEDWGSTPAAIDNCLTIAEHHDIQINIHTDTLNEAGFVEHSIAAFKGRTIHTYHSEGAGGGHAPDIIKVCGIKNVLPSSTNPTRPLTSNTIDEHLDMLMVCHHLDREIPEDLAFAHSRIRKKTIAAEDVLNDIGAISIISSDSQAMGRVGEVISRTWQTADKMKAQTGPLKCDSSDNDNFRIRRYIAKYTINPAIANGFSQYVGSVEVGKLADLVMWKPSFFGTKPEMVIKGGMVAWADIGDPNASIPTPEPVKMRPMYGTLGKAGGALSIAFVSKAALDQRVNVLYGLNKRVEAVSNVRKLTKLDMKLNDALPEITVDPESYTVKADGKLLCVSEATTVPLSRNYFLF

For the molecule `CCCNP(N)(N)=S` [R = n-propyl, N-(n-propyl)thiophosphoramide], the “ammonia after 6 hours” value is, setting by setting: under setting [1], “+ (less than 50 ppm of ammonia after 6 hours)”; under setting [2], “+ (less than 50 ppm of ammonia after 6 hours)”; under setting [3], “+ (less than 50 ppm of ammonia after 6 hours)”; under setting [4], “+ (less than 50 ppm of ammonia after 6 hours)”; under setting [5], “+ (less than 50 ppm of ammonia after 6 hours)”; under setting [6], “+ (less than 50 ppm of ammonia after 6 hours)”. The “ammonia after 6 hours” value under setting [7] is given as “+ (less than 50 ppm of ammonia after 6 hours)”.

Consider `CCCCNP(N)(N)=S` [R = n-butyl, N-(n-butyl)thiophosphoramide], for which the “ammonia after 6 hours” value is, setting by setting: under setting [1], “+ (less than 50 ppm of ammonia after 6 hours)”; under setting [2], “+ (less than 50 ppm of ammonia after 6 hours)”; under setting [3], “+ (less than 50 ppm of ammonia after 6 hours)”; under setting [4], “+ (less than 50 ppm of ammonia after 6 hours)”; under setting [5], “+ (less than 50 ppm of ammonia after 6 hours)”; under setting [6], “+ (less than 50 ppm of ammonia after 6 hours)”. In addition, under setting [7], the “ammonia after 6 hours” value is listed as “+ (less than 50 ppm of ammonia after 6 hours)”.

On to `NP(N)(=S)NC1CCCCC1` [R = cyclohexyl, N-cyclohexylthiophosphoramide, reference compound], for which the “ammonia after 6 hours” value reads like this: under setting [1], “− (more than 50 ppm of ammonia after 6 hours)”; under setting [2], “− (more than 50 ppm of ammonia after 6 hours)”; under setting [3], “− (more than 50 ppm of ammonia after 6 hours)”; under setting [4], “− (more than 50 ppm of ammonia after 6 hours)”; under setting [5], “+ (less than 50 ppm of ammonia after 6 hours)”; under setting [6], “+ (less than 50 ppm of ammonia after 6 hours)”. Further, under setting [7], the “ammonia after 6 hours” value is listed as “+ (less than 50 ppm of ammonia after 6 hours)”.
